Measurements: publication PMC9116245, “New 1,2,3-triazole linked ciprofloxacin-chalcones induce DNA damage by inhibiting human topoisomerase I& II and tubulin polymerization” (Journal of Enzyme Inhibition and Medicinal Chemistry, 2022)
Read-outs that look alike come from different tables or passages of the source.

Legend:
Human topoisomerase I = molecular target: T1, Human topoisomerase I (Homo sapiens, UniProt P11387); experiment: DNA relaxation assay (gel electrophoresis); assay type: biochemical; settings: compounds at their IC50 values
T1 construct: purchased Topogen Inc., USA TG-1015
T1 sequence (P11387 1-765): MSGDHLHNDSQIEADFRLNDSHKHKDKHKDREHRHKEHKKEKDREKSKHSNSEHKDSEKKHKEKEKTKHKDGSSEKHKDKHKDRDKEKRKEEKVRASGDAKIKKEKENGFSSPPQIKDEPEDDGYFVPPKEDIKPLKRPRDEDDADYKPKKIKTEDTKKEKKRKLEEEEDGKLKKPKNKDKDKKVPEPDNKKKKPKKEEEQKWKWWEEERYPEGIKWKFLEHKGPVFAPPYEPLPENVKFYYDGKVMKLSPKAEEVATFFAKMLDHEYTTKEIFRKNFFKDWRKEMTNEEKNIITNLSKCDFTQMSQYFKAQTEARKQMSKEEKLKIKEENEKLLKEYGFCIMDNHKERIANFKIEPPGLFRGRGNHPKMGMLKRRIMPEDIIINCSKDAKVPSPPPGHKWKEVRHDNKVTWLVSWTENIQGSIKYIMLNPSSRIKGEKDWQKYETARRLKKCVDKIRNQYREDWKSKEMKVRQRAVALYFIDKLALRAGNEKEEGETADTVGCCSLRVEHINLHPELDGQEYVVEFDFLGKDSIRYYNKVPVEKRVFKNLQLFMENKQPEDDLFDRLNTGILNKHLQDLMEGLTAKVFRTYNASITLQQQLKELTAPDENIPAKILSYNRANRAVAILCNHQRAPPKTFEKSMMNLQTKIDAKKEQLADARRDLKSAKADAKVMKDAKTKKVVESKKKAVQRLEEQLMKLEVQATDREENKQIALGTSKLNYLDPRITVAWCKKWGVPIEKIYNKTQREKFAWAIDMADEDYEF
Protocol: Based on our design, we hypothesised that the new CP hybrids 4a-j could act as multi-target ligands that can block the catalytic activity of topoisomerases I (Topo-I), topoisomerases (Topo-II), and inhibit tubulin polymerisation as possible targets for the anti-proliferative activity. First, the Topo-I activity was tested by the DNA relaxation assay. The supercoiled plasmid has been utilised as a substrate in the relaxation assay to study the inhibition of DNA Topo-I activity. […] Two different assays were used to examine the inhibitory activity of IC50 of the CP hybrids against Human topoisomerase I. Firstly; Gel electrophoresis-based assay (DNA relaxation assay) was performed following the manufacturer's protocol (TG-1015, Topogen Inc., USA). Secondly, the inhibitory activity of compounds 4a, 4b, 4e, 4i, 4j, and camptothecin to human topoisomerase I was analysed by Human DNA Topoisomerase I Assay Kit (ProFoldin, Hudson, MA, USA) with recombinant human DNA topoisomerase I (Sigma-Aldrich) according to the manufacturer’s protocol.

ATR/CHK1/Cdc25C pathway = experiment: Western blot of ATR-Chk1-Cdc25C cascade in HCT116 cells; assay type: cell-based, human
Protocol: To clarify the molecular mechanism responsible for inducing G2/M phase arrest in HCT116 following the treatment with the synthesised compounds, the signalling in the checkpoint pathway that regulates the G2/M transition was investigated. The mammalian cells respond to the DNA damage through 2 different kinase-signalling cascades (ATR-Chk1 and ATM-Chk2). First, the effect of the synthesised compounds on ATM and ATR phosphorylation was tested. […] Then, the phosphorylation of downstream effectors of ATM/ATR, phospho-Chk1-S269, and phospho-Chk2-T68 kinases was explored. […] It is well known that in vitro activation of Chk1 phosphorylates Cdc25C on serine-216. Therefore, the impact of the synthesised compounds on the Cdc25C phosphorylation at Ser-216 was investigated.
Western blotting analysis for HCT116 cells was performed according to the reported procedure in the literature[77–79] to determine the effects of CP hybrids; 4a, 4b, 4e, 4i, and 4j on the expression of polymerised tubulin, γH2AX, p-ATR, p-CHK1, and p-Cdc25C by using the appropriate antibody. See Supplementary Appendix A.

KM12 = assay type: cell-based; settings: Homo sapiens
OVCAR-4 = assay type: cell-based; settings: Homo sapiens
A549/ATCC = assay type: cell-based; settings: Homo sapiens
SK-MEL-5 = assay type: cell-based; settings: Homo sapiens
MCF7 = assay type: cell-based, human
SF-295 = assay type: cell-based; settings: Homo sapiens
[1] = system: Human Embryonic Kidney (HEK) 293 cells; experiment: Cytotoxicity assay with non-cancerous cells (MTS); assay type: cell-based; settings: HEK293 versus cancer cells
Protocol: To evaluate the selectivity and safety profile of the synthesised CP hybrids, a cytotoxicity experiment of compounds 4a, 4b, 4e, 4i, and 4j was performed using normal Human Embryonic Kidney (HEK) 293 cells.
To evaluate the selectivity and safety profile of the synthesised ciprofloxacin-chalcone hybrids, a cytotoxicity experiment was performed using a non-cancerous cell line. Briefly, Human Embryonic Kidney (HEK) 293 cells (ATCC, Manassas, VA, USA) were cultured in a Dulbecco’s Modified Eagle Medium (DEMEM) supplemented with 1 mM sodium pyruvate, 10 mM HEPES buffer solution, 2 mM GlutaMAX (Gibco, Grand Island, NY, USA), 50 µg/mL gentamycin sulphate (Dubuque, IA, USA), and 10% foetal bovine serum (ThermoFisher Scientific, USA). Cells were seeded in 96-well plates and incubated overnight in a humidified atmosphere with 5% CO2 at 37 °C. After 24 h, cells were treated with different concentrations (0.01–100 µM) of ciprofloxacin-chalcone hybrids. Also, DMSO and doxorubicin were used as negative and positive controls, respectively. After 72 h, old medium containing treatments were removed, and fresh medium and MTS reagents (CellTiter 96® AQueous One Solution Cell Proliferation Assay, Promega, Madison, WI, USA) were added. […] After 2 h, the absorbance was measured at 490 nm using a Spectra Max plus 384 Microplate reader (Molecular Devices, Sunnyvale, CA, USA) [74]. […]

UACC-62 = assay type: cell-based; settings: Homo sapiens
SW-620 = assay type: cell-based; settings: Homo sapiens
SNB-75 = assay type: cell-based; settings: Homo sapiens
MALME-3M = assay type: cell-based; settings: Homo sapiens
HL-60(TB) = assay type: cell-based; settings: Homo sapiens
ACHN = assay type: cell-based; settings: Homo sapiens
SF-268 = assay type: cell-based; settings: Homo sapiens
IGROV1 = assay type: cell-based; settings: Homo sapiens, IGROV-1
UACC-257 = assay type: cell-based; settings: Homo sapiens
M14 = assay type: cell-based; settings: Homo sapiens
NCI-H23 = assay type: cell-based; settings: Homo sapiens
COLO 205 = assay type: cell-based; settings: Homo sapiens
OVCAR-5 = assay type: cell-based; settings: Homo sapiens
[2] = read-out: LC50 (the source's name)

O=C(/C=C/c1ccc(F)cc1)c1ccc(-n2cc(CN3CCN(c4cc5c(cc4F)c(=O)c(C(=O)O)cn5C4CC4)CC3)nn2)cc1 [Compound 4e, (E)-1-cyclopropyl-6-fluoro-7–(4-((1–(4-(3-(4-fluorophenyl)acryloyl)phenyl)-1H-1,2,3-triazol-4-yl)methyl)piperazin-1-yl)-4-oxo-1,4-dihydroquinoline-3-carboxylic acid]
Topo-I catalytic activity, DNA relaxation (Human topoisomerase I): could inhibit Topo-I catalytic activity
expressions of p-ATR, p-CHK1, and p-Cdc25C, Western blot (ATR/CHK1/Cdc25C pathway): increased

O=C(/C=C/c1ccccc1)c1ccc(-n2cc(CN3CCN(c4cc5c(cc4F)c(=O)c(C(=O)O)cn5C4CC4)CC3)nn2)cc1 [Compound 4a, (E) 7-(4-((1–(4-Cinnamoylphenyl)-1H-1,2,3-triazol-4-yl)methyl)piperazin-1-yl)-1-cyclopropyl-6-fluoro-4-oxo-1,4-dihydroquinoline-3-carboxylic acid]
Topo-I catalytic activity, DNA relaxation (Human topoisomerase I): could inhibit Topo-I catalytic activity
expressions of p-ATR, p-CHK1, and p-Cdc25C, Western blot (ATR/CHK1/Cdc25C pathway): increased

COc1ccc(/C=C/C(=O)c2ccc(-n3cc(CN4CCN(c5cc6c(cc5F)c(=O)c(C(=O)O)cn6C5CC5)CC4)nn3)cc2)cc1OC [Compound 4i, (E)-1-cyclopropyl-7-(4-((1-(4-(3–(3,4-dimethoxyphenyl)acryloyl)phenyl)-1H-1,2,3-triazol-4-yl)methyl)piperazin-1-yl)-6-fluoro-4-oxo-1,4-dihydroquinoline-3-carboxylic acid]
Topo-I catalytic activity, DNA relaxation (Human topoisomerase I): could inhibit Topo-I catalytic activity
expressions of p-ATR, p-CHK1, and p-Cdc25C, Western blot (ATR/CHK1/Cdc25C pathway): increased

O=C(/C=C/c1cccc(Cl)c1)c1ccc(-n2cc(CN3CCN(c4cc5c(cc4F)c(=O)c(C(=O)O)cn5C4CC4)CC3)nn2)cc1 [Compound 4b, (E)-7-(4-((1–(4-(3-(3-chlorophenyl)acryloyl)phenyl)-1H-1,2,3-triazol-4-yl)methyl)piperazin-1-yl)-1-cyclopropyl-6-fluoro-4-oxo-1,4-dihydroquinoline-3-carboxylic acid]
Topo-I catalytic activity, DNA relaxation (Human topoisomerase I): could inhibit Topo-I catalytic activity
expressions of p-ATR, p-CHK1, and p-Cdc25C, Western blot (ATR/CHK1/Cdc25C pathway): increased

COc1cc(/C=C/C(=O)c2ccc(-n3cc(CN4CCN(c5cc6c(cc5F)c(=O)c(C(=O)O)cn6C5CC5)CC4)nn3)cc2)cc(OC)c1OC [Compound 4j, (E)-1-cyclopropyl-6-fluoro-4-oxo-7–(4-((1–(4-(3-(3,4,5-trimethoxyphenyl)acryloyl)phenyl)-1H-1,2,3-triazol-4-yl)methyl)piperazin-1-yl)-1,4-dihydroquinoline-3-carboxylic acid]
GI50 (KM12): 1.57 µM
CC50 (KM12; [2]): > 100 µM
GI50 (OVCAR-4): 3.94 µM
CC50 (OVCAR-4; [2]): 39.6 µM
GI50 (A549/ATCC): 2.98 µM
CC50 (A549/ATCC; [2]): > 100 µM
GI50 (SK-MEL-5): 2.64 µM
CC50 (SK-MEL-5; [2]): > 100 µM
GI50 (MCF7; Homo sapiens, MCF7, MCF7): 0.396 µM
CC50 (MCF7; Homo sapiens, MCF7, read-out: LC50 (the source's name)): > 100 µM
GI50 (MCF7; MCF7): 0.39 µM
GI50 (SF-295): 2.91 µM
CC50 (SF-295; [2]): > 100 µM
selectivity index compared with Doxorubicin [1]: six-fold better
GI50 (UACC-62): 2.83 µM
CC50 (UACC-62; [2]): 57.7 µM
GI50 (SW-620): 1.37 µM
CC50 (SW-620; [2]): > 100 µM
GI50 (SNB-75): 1.49 µM
CC50 (SNB-75; [2]): > 100 µM
GI50 (MALME-3M): 2.59 µM
CC50 (MALME-3M; [2]): > 100 µM
GI50 (HL-60(TB)): 3.18 µM
CC50 (HL-60(TB); [2]): > 100 µM
Topo-I catalytic activity, DNA relaxation (Human topoisomerase I): could inhibit Topo-I catalytic activity
GI50 (ACHN): 3.5 µM
CC50 (ACHN; [2]): > 100 µM
GI50 (SF-268): 3.09 µM
CC50 (SF-268; [2]): > 100 µM
GI50 (IGROV1): 1.64 µM
GI50 (UACC-257): 6.34 µM
LC50 (UACC-257): > 100 µM
GI50 (M14): 2.49 µM
CC50 (M14; [2]): > 100 µM
GI50 (NCI-H23): 2.97 µM
CC50 (NCI-H23; [2]): > 100 µM
GI50 (COLO 205): 5.08 µM
CC50 (COLO 205; [2]): > 100 µM
GI50 (OVCAR-5): 3.7 µM
CC50 (OVCAR-5; [2]): > 100 µM
expressions of p-ATR, p-CHK1, and p-Cdc25C, Western blot (ATR/CHK1/Cdc25C pathway): increased
